Assay [1] addresses DNA polymerase beta (Rattus norvegicus) (UniProt P06766). The assay can be described thus: Binding affinity to rat DNA polymerase beta with methyl-lysine modification at 72 assessed as inhibition of dRP excision in presence of 32P-end labelled duplex DNA at 50 uM by SDS PAGE.
Assay [2] has the same target. Briefly: Binding affinity to wild type rat DNA polymerase beta assessed as inhibition of dRP excision in presence of 32P-end labelled duplex DNA at 50 uM by SDS PAGE analysis.
Assay [3] deals with DNA polymerase beta (Homo sapiens) (UniProt P06746). Briefly: Binding affinity to wild type human DNA polymerase beta assessed as inhibition of dRP excision in presence of 32P-end labelled duplex DNA at 25 uM by SDS PAGE analysis.
The target in assay [4] is DNA polymerase beta (Rattus norvegicus) (UniProt P06766). The assay can be described thus: Binding affinity to rat DNA polymerase beta with homo-lysine modification at 72 assessed as inhibition of dRP excision in presence of 32P-end labelled duplex DNA at 50 uM by SDS PAGE.
Assay [5] deals with DNA polymerase beta (Homo sapiens) (UniProt P06746). The assay can be described thus: Binding affinity to human DNA polymerase beta with methyl-lysine modification at 72 assessed as inhibition of dRP excision in presence of 32P-end labelled duplex DNA at 25 uM by SDS PAGE.
Assay [6] has the same target. The assay can be described thus: Binding affinity to human DNA polymerase beta with homo-lysine modification at 72 assessed as inhibition of dRP excision in presence of 32P-end labelled duplex DNA at 25 uM by SDS PAGE.
Assay [7] concerns the target DNA polymerase beta (Rattus norvegicus) (UniProt P06766). Briefly: Binding affinity to rat DNA polymerase beta with homo-lysine modification at 72 assessed as inhibition of dRP excision in presence of 32P-end labelled duplex DNA at 25 uM by SDS PAGE.
For assay [8] the target is unchanged. The assay can be described thus: Binding affinity to wild type rat DNA polymerase beta assessed as inhibition of dRP excision in presence of 32P-end labelled duplex DNA at 25 uM by SDS PAGE analysis.
The target is the same in assay [9]. Briefly: Binding affinity to rat DNA polymerase beta with methyl-lysine modification at 72 assessed as inhibition of dRP excision in presence of 32P-end labelled duplex DNA at 25 uM by SDS PAGE.
For assay [10] the target is unchanged. Briefly: Binding affinity to rat DNA polymerase beta with methyl-lysine modification at 72 assessed as inhibition of dRP excision in presence of 32P-end labelled duplex DNA at 10 uM by SDS PAGE.
For assay [11] the target is unchanged. Briefly: Binding affinity to wild type rat DNA polymerase beta assessed as inhibition of dRP excision in presence of 32P-end labelled duplex DNA at 10 uM by SDS PAGE analysis.
Assay [12] has the same target. Briefly: Binding affinity to rat DNA polymerase beta with homo-lysine modification at 72 assessed as inhibition of dRP excision in presence of 32P-end labelled duplex DNA at 10 uM by SDS PAGE.

The structures appear in SMILES notation. The source made the active and inactive calls. The calls are words filed in the database; no cut-off is given here.

By inhibition is commonly meant the share of the control response that was lost under treatment. With `CC[C@H](CC[C@@H](C)[C@H]1CC[C@H]2[C@@H]3CCC4C[C@@H](OC(=O)c5ccccc5)CC[C@]4(C)[C@H]3CC[C@]12C)C(C)C` (some centres not stated), the inhibition entry in assay [1], in [2], in [3], in [4], in [5] and in [6] was “Active” in each case.
Turning to `CCCCCCCC[C@H]1O[C@H]1CCCCCCCC(=O)O` (racemic), the inhibition entry in [1], in [2], in [8] and in [9] was “Active” throughout. Besides, the inhibition result in [4] and in assay [7] was “inactive” in each case.
`CC[C@H](/C=C/[C@@H](C)[C@H]1CC[C@H]2[C@@H]3CC=C4C[C@@H](O)CC[C@]4(C)[C@H]3CC[C@]12C)C(C)C`: the inhibition entry in assay [1], in assay [2], in assay [3], in assay [4], in assay [5] and in assay [6] was “Active” throughout.
On to `O=C(O)c1ccc(O)c(O)c1`, for which the inhibition is 50% in [1], 50% in assay [2] and 25% in [4]. Moreover, the inhibition entry in assay [3], in assay [5] and in assay [6] was “Active” each time.
Regarding `CCCCCCCCC(O)C(O)CCCCCCCC(=O)O` (racemic), the inhibition entry in assay [10], in [11] and in [12] was “Active” in each case.

(Values after ChEMBL document CHEMBL4665737, “An assay for DNA polymerase β lyase inhibitors that engage the catalytic nucleophile for binding” (Bioorg Med Chem, 2020).)
